Measurements taken from patent publication US20060293282A1, “Substituted aminoalkanephosphonic acids” (priority 2002, published 2006).

What was measured:
Wistar Kyoto rats [1] = assay: Test 2: NMDA-channel blocker induced head swaying and circling; format: in vivo; conditions: rat, 10 mg/kg s.c., 0-30 min
Experimental: Test 2: NMDA-Channel Blocker Induced Head Swaying and Circling:
Adult male Wistar Kyoto rats (340-380 g; Iffa Credo, Lyon, France) are used. The animals are randomized to the following treatment groups (n=10 per group): the compound (dosed 0, 3 or 10 mg/kg) followed by phencyclidine (PCP; an NMDA channel blocker, dosed 0 or 10 mg/kg). Compound (at t=−15 min) and PCP (at t=0 min) are administered s.c. in a volume of 1 ml/kg. Video-recordings of the animals behaviour over the period 0-30 min following PCP are scored by an observer who is unaware about the animals pretreatment. Head-swaying (rocking the head repeatedly by at least 2 cm left and right) and circling (turning around by using the forepaws, whereas the hindpaws remain more or less on the original position) are scored as present (1) or absent (0), every five minutes for the duruation of 1 minute. The scores for individual animals is summed and group scores used for statistical analysis (t-test with Bonferroni correction).

Wistar Kyoto rats [2] = assay: Test 1: NMDA-antagonist induced locomotion; format: in vivo; conditions: rat
Experimental: Test 1: NMDA-Antagonist Induced Locomotion:
Male Wistar Kyoto rats (Iffa Crédo, Lyon, France) weighing between 250 and 310 g are used. In principle 4 treatment groups are formed: 1) the compound (doses 1, 3 or 10 mg/kg) followed by the competitive NMDA receptor antagonist (S)-2-amino-3-(2′-chloro-5-phosphonomethyl-biphenyl-3-yl)-propionic acid, hereinafter SDZ 220-581 (10 mg/kg), 2) solvent-pretreatment followed by SDZ 220-581 (10 mg/kg), 3) solvent followed by solvent, 4) the compound (1, 3, 10 mg/kg) followed by solvent. Rats are randomly allocated to these pretreatment groups (n=10/dose group). Drugs are administered subcutaneous (s.c.), 15 min prior to SDZ 220-581. Immediately after the animals received SDZ 220-581, they are placed into the activity monitor for a period of 60 min. Locomotor activity is analysed over the initial 30 minutes.
Locomotion is recorded with a videotracking system (VideoMot2, TSE Technical and Scientific Equipment GmbH, Bad Hombourg, Germany), using a closed circuit digital videocamera (WV-BP.330/GE, Panasonic, Osaka, Japan). The video-signal from the camera is digitized and used for data analysis. Animals are on a normal 12/12 h day-night cycle, with light on at 06:00H. Experiments are performed in a dimly lit room between 07:00 H and 15:00H. […] The camera is placed such, that four animals (one per arena) can be recorded simultaneously.

neurons = conditions: superfusion, in vitro
Excerpt: The activity in tinnitus of the compounds is indicated in standard tests, e.g. in the salicylate-induced tinnitus model.

auditory neurons = assay: extracellular electrophysiological recording of auditory neuron firing rate
Wistar rats = assay: model of neuropathic pain in the rat (partial sciatic nerve ligation, mechanical hyperalgesia); format: in vivo; conditions: 10 mg/kg p.o., after 3 hours
Excerpt: The activity of the compounds in the treatment of neuropathic pain is evidenced, for example, in the following model of neuropathic pain in the rat:
Wistar rats are anaesthetised with enflurane and a small incision is made mid-way up one thigh to expose the sciatic nerve. The nerve is cleared of connective tissue and a 7-0 silk suture is inserted into the nerve using a ⅜ curved reverse-cutting min-needle, and tightly ligated so that the dorsal ⅓ to ½ of the nerve thickness is held within the ligature. The muscle and skin are closed with sutures and clips and the wound dusted with antibiotic powder. […] Mechanical hyperalgesia is assessed by measuring paw withdrawal thresholds on both the ipsilateral (ligated) and contralateral (unligated) hindpaw to an increasing pressure stimulus applied to the paw using an analgesymeter (Ugo-Basile) with a wedge-shaped probe (area 1.75 mm^2) and a cut-off threshold of 250 g. […] Reversal of established hyperalgesia by administered compounds is measured 12-14 days following surgery, using 6 animals per treatment group. Paw withdrawal thresholds are measured prior to and then up to 6 hours following drug or vehicle administration. Statistical analysis is carried out on withdrawal threshold readings using ANOVA followed by Tukey's HSD test comparing drug treated and time-matched vehicle treated animals.

[3] = test system: patients with diabetic neuropathy; assay: clinical study of chronic pain in patients with diabetic neuropathy; format: in vivo, human; conditions: 2400 mg/day, Maintenance and Follow-up Periods, statistically significant
Experimental: The activity of the compounds of formula I in the treatment of neuropathic pain can be confirmed in clinical trials, for example in the following study aimed at evaluating the efficacy of a compound in treating chronic pain in patients with diabetic neuropathy:
Patients are randomized to receive 2400 mg/day of the compound or placebo in a 1:1 ratio.
The study consists of a Pre-randomization Phase (1 week) and a Double-blind Phase (5 weeks). The double-blind Phase consists of three periods: a one week Titration Period, a three-week Maintenance Period and a one-week Follow-up Period.
During the 1-week Pre-randomization Phase, the eligibility of the patients is evaluated. Patents meeting all inclusion/exclusion criteria are randomized to either the compound or placebo in the Double-blind Phase. […]
The SF-MPQ total pain score at the end of the Maintenance Period is analyzed using an analysis of covariance model adjusting for the effect of treatment on post-treatment scores by using the baseline SF-MPQ total pain score as a covariate. Average weekly pain severity is analyzed using an analysis of covariance model with repeated measures using the treatment week and the mean pain severity rating during the Pre-randomization Phase as covariates. Usage of rescue medication during the Double-blind Phase is analyzed using the Cochran-Mantel-Haenszel test controlling for center. […]

SMILES: c1ccc(C2(N3CCCCC3)CCCCC2)cc1 [PCP, phencyclidine]
- head-swaying and circling induced (Wistar Kyoto rats [1]): weak head-swaying and circling

SMILES: N[C@@H](Cc1cc(CP(=O)(O)O)cc(-c2ccccc2Cl)c1)C(=O)O [SDZ 220-581, (S)-2-amino-3-(2′-chloro-5-phosphonomethyl-biphenyl-3-yl)-propionic acid]
- distance walked during 30 min (Wistar Kyoto rats [2]; 10 mg/kg s.c., control animals approximately 8-10 m): approximately 30 m

SMILES: O=C(O)c1ccccc1O [salicylate]
- excitability of the recorded neurons (neurons): increases the excitability
- firing rate of auditory neurons (auditory neurons): increase in the firing rate

SMILES: O=c1[nH]c2cc([N+](=O)[O-])cc(CNCP(=O)(O)O)c2[nH]c1=O [{[(7-nitro-2,3-dioxo-1,2,3,4-tetrahydro-quinoxalin-5-ylmethyl)-amino]-methyl}-phosphonic acid]
- maximal reversal of neuropathic mechanical hyperalgesia (Wistar rats): 35%
- pain severity ratings relative to placebo [3]: decrease pain severity ratings relative to placebo
- effect of the NMDA-antagonist SDZ 220-581 on locomotion after pretreatment (Wistar Kyoto rats [2]; compound 10 mg/kg s.c., SDZ 220-581 10 mg/kg s.c.): almost normalized

SMILES: C=C[C@H]1C[N@@]2CC[C@H]1C[C@H]2[C@H](O)c1ccnc2ccc(OC)cc12 [quinine]
- firing rate of auditory neurons (auditory neurons): increase in the firing rate
